The source of these data is US20050277600A1, “Compositions and methods of use of dimer digallates” (Mars, Incroporated, priority 2004, published 2005).

The test system of series [1] is rabbit aortic rings. In words: Relaxation of norepinephrine pre-constricted rabbit aortic rings ex vivo. The following applies: for Max Relaxation: Experiment 3, 100 μM; for Aortic Ring Effective Conc,: Table 1 summary. As for the experimental part: Several compounds were investigated for their effect on nitric oxide (NO) production and vasorelaxation using serum-free human umbilical vein endothelial cell (HUVEC) culture system in vitro and rabbit aortic ring model ex vivo, respectively. NO production by endothelial cells and relaxation of pre-constricted aortic rings are two main markers for evaluating vascular effects of test compounds. Effect of different procyanidins on endothelium-dependent relaxation was tested in an ex vivo experiment performed as previously described by Karim et al., J. Nutrl Suppl., 130 (8S): […]-[…] (2000), the relevant portions of which are hereby incorporated herein by reference. The advantage of using this method is that it assesses functional vascular end points. […] In summary, rabbit aortic rings were obtained from male New Zealand White rabbits. Following isolation, the rings were mounted in oxygenated Kreb's buffer, and pre-constricted with norepinephrine (NE) (10^-6 M). […] A positive control acetylcholine (10^-9 to 10^-4 M) and a negative control L-NAME were included in the experiment. Use of L-NAME, which is a NO synthase (NOS) inhibitor, allows for differentiating between endothelium dependent and endothelium independent relaxation events. […] The relaxation response was measured as a function of the decrease in the tension (g) exerted by the aortic rings over time […]. Data obtained were expressed as a percent relaxation of the norepinephrine (NE) constricted rings. The same statistical approach as described above was used. Dose response curves were obtained by plotting the average percent relaxation (+/-SE) against the concentrations used.

Series [2] concerns human umbilical vein endothelial cell (HUVEC) NO production. In words: HUVEC NO production (NOx in cell culture medium, chemiluminescence). Format: cell-based. To be noted: for HUVEC Cells NOx, 2 hr / HUVEC Cells NOx, 24 hr / HUVEC Cells NOx, 5 d: Table 2 summary; for NO production, positive and negative controls: Experiment 1, acute, 2 hours. Here is the method:
Several compounds were investigated for their effect on nitric oxide (NO) production and vasorelaxation using serum-free human umbilical vein endothelial cell (HUVEC) culture system in vitro and rabbit aortic ring model ex vivo, respectively. NO production by endothelial cells and relaxation of pre-constricted aortic rings are two main markers for evaluating vascular effects of test compounds.
HUVECs obtained from a single donor were cultured in serum free, low protein (0.5 g/l), antibiotic-free cell culture medium supplemented with essential growth factors, nutrients and minerals. […] The cell culture medium was substituted with apo-transferrin, superoxide dismutase, and catalase to exclude secondary effects of test compounds involving their auto-oxidation mediated hydrogen peroxide formation.
NO production was evaluated by measuring the total amount of all major nitric oxide end products (NOx, including nitrate, nitrite, nitrosothiols) present in the cell culture medium. […] The amount of NO released from the culture medium was subsequently evaluated by measuring the chemiluminescence emitted during the stoichiometrical reaction between ozone and NO using a NO Analyzer (Sievers Instruments, Inc. Boulder, Colo.).
The data presented herein were obtained from three experiments and were expressed as the concentration of NO present (in μmol/l) (as NOx) in the cell culture medium+/−standard deviation (SD). The data were corrected for the NOx intrinsically present in the fully supplemented cell culture medium and normalized with respect to the volume of media from which the sample was drawn. Data were analyzed using Student's t-test with a 95% level of confidence. P values equal to or less than 0.05 were defined as statistically significant.
For the acute effect test, HUVECs were incubated with the test compounds for 2 hours at concentrations of 100 nM, 1 μM, and 10 μM at 37° C. and 5% CO2. […] (FIG. 1)
For the chronic effect test, HUVECs were incubated with 5 subsequent doses of test compounds, each for 24 hours. After each 24 hour treatment, culture medium was replaced.
For the acute effect test, HUVECs were incubated with a single dose of the test compounds for 24 hours at concentrations of 100 nM, 1 μM, and 10 μM at 37° C. and 5% CO2.

For series [3], the system named is HUVEC. The series can be described thus: HUVEC-mediated MTT reduction (toxic effects). The following applies: for cell-mediated MTT reduction: Experiment 2, chronic, 5 x 24 hours, 10 μM (20 μM for the Epicatechin gallates). Background: Formazan colour is commonly taken as a measure of viable cells.
Description: Cell counts and total protein were used to assess intra-assay variation. Potential toxic effects of tested compounds were also monitored (MTT reduction was measured).
The mark [4] stands for this setting: Experiment 1, chronic, 5 subsequent 24 hour doses.
The mark [5] stands for this setting: Experiment 4, 10^−9M -10^4M (so in the source).

As for `COC(=O)[C@@H](N)CCCNC(=N)N[N+](=O)[O-]` [L-NAME, reference compound], the “relaxation responses after pre-treatment with NOS inhibitor” value in series [1] (vessels pre-treated with negative control) was “relaxation responses were attenuated”.
As to `O=C(O[C@H]1[C@@H](c2c(O)cc(O)c3c2O[C@H](c2ccc(O)c(O)c2)[C@@H](OC(=O)c2cc(O)c(O)c(O)c2)C3)c2c(O)cc(O)cc2O[C@@H]1c1ccc(O)c(O)c1)c1cc(O)c(O)c(O)c1` [C-(4β→8)-C digallate, (+)-Catechin-(4β,8)-(+)-Catechin Digallate], in series [1] (Experiment 2, 10^−4 M), the “relaxation response, percent relaxation of NE constricted rings” value (from here on “relaxation response, percent relaxation”) is listed as 72.6+/−9.8%. Further, in series [1], the “Max Relaxation” value is 73% and the “Aortic Ring Effective Conc,” value was 100 µM.
Regarding `Oc1cc(O)c2c(c1)O[C@H](c1ccc(O)c(O)c1)[C@@H](O)[C@@H]2c1c(O)cc(O)c2c1O[C@H](c1ccc(O)c(O)c1)[C@@H](O)C2` [C-(4α→8)-C, (+)-Catechin-(4α,8)-(+)-Catechin], in series [2] (Experiment 1, 24 h after single dose, 10 μM), the NO production result is on record as “increased NO production”. Besides, in series [2] (setting [4]), the NO production entry was “did not modulate NO production”. Further, in series [2], the “HUVEC Cells NOx, 2 hr” value was “no effect”; the “HUVEC Cells NOx, 24 hr” value is 10 uM, sign. NOx incr; the “HUVEC Cells NOx, 5 d” value is “no effect”. The “relaxation response, percent relaxation” value in series [1] (Experiment 1, 10^−4 M) is 60.80+/−15.09%. Moreover, in series [1], the “Max Relaxation” value is 61% and the “Aortic Ring Effective Conc,” value turned out to be 100 µM.
For `NCCc1c[nH]cn1` [histamine, reference compound], in series [2] (compared to vehicle), the “NO production, positive and negative controls” value is on record as “statistically significant increase in NO production”.
In the case of `O=C(O[C@H]1[C@H](c2c(O)cc(O)c3c2O[C@H](c2ccc(O)c(O)c2)[C@@H](OC(=O)c2cc(O)c(O)c(O)c2)C3)c2c(O)cc(O)cc2O[C@@H]1c1ccc(O)c(O)c1)c1cc(O)c(O)c(O)c1` [C-(4α→8)-C digallate, (+)-Catechin-(4α,8)-(+)-Catechin Digallate], the “relaxation response, percent relaxation” value in series [1] (Experiment 2, 10^−4 M) is given as 71.7+/−11.6%. Besides, in series [1], the “Max Relaxation” value came to 72% and the “Aortic Ring Effective Conc,” value turned out to be 100 µM.
Take `Oc1cc(O)c2c(c1)O[C@H](c1ccc(O)c(O)c1)[C@@H](O)[C@@H]2c1c(O)cc(O)c2c1O[C@H](c1ccc(O)c(O)c1)[C@H](O)C2` [C-(4α→8)-EC]: the relaxation response result in series [1] (Experiment 2, 10^−9 to 10^−4 M) is “No significant relaxation response”.
For the compound `Oc1cc(O)c2c(c1)O[C@H](c1ccc(O)c(O)c1)[C@@H](O)[C@H]2c1c(O)cc(O)c2c1O[C@H](c1ccc(O)c(O)c1)[C@@H](O)C2` [C-(4β→8)-C, (+)-Catechin-(4β,8)-(+)-Catechin], the “HUVEC NO production” value in series [2] (Experiment 2, chronic, 5 subsequent 24 hour doses) is recorded as “increase in HUVEC NO production”. In series [2], the “HUVEC Cells NOx, 2 hr” value is given as “no effect”; the “HUVEC Cells NOx, 24 hr” value is reported as “no effect”; the “HUVEC Cells NOx, 5 d” value is 10 uM, significant NOx increase. Further, the relaxation response result in series [1] (Experiment 1, 10^−9 to 10^−4 M) is “No significant relaxation response”. Further, in series [1] (Experiment 2, 10^−9 to 10^−4 M), the relaxation response result is reported as “No significant relaxation response”.
Turning to `O=C(O[C@@H]1[C@@H](c2c(O)cc(O)c3c2O[C@H](c2ccc(O)c(O)c2)[C@@H](OC(=O)c2cc(O)c(O)c(O)c2)C3)c2c(O)cc(O)cc2O[C@@H]1c1ccc(O)c(O)c1)c1cc(O)c(O)c(O)c1` [EC-(4β→8)-C digallate, (−)-Epicatechin-(4β,8)-(+)-Catechin Digallate], in series [1] (Experiment 2, 10^−4 M), the “relaxation response, percent relaxation” value is reported as 56.7+/−15.4%. Moreover, in series [1], the “Max Relaxation” value was found to be 57% and the “Aortic Ring Effective Conc,” value amounted to 100 µM.
Regarding `Oc1cc(O)c2c(c1)O[C@H](c1ccc(O)c(O)c1)[C@H](O)[C@H]2c1c(O)cc(O)c2c1O[C@H](c1ccc(O)c(O)c1)[C@H](O)C2` [EC-(4β→8)-EC], the relaxation response entry in series [1] (Experiment 1, 10^−9 to 10^−4 M) is “No significant relaxation response”. The MTT reduction result in series [3] (setting [4]) is reported as “decline in MTT reduction”.
Take `Oc1cc(O)c2c(c1)O[C@H](c1cc(O)c(O)c(O)c1)[C@H](O)C2` [EGC, Epigallocatechin, reference compound]: the relaxation response entry in series [1] (setting [5]) was “No significant relaxation response”.
Turning to `CC(=O)OCC[N+](C)(C)C` [acetylcholine, reference compound], in series [1] (positive control), the “concentration producing a relaxation response” value is 10^−7 M and the “concentration reaching maximal relaxation” value is on record as 10^−6 M.
As to `Cc1c(O)c(C2c3c(O)cc(O)cc3OC(c3ccc(O)c(O)c3)C2O)c(O)c2c1OC(c1ccc(O)c(O)c1)C(O)C2` (stereo not drawn) [EC(4β→6)EC-8methyl], in series [1] (Experiment 2, 10^−9 to 10^−4 M), the relaxation response result is listed as “No significant relaxation response”.
For the compound `O=C(O[C@@H]1Cc2c(O)cc(O)cc2O[C@@H]1c1cc(O)c(O)c(O)c1)c1cc(O)c(O)c(O)c1` [EGCG, Epigallocatechingallate, reference compound], in series [2] (Experiment 2, single dose, 24 hours, 10 μM), the “modulation of NO production” value was “statistically significant ability to modulate NO production”. Besides, in series [2], the “HUVEC Cells NOx, 24 hr” value is 20 uM, sign. NOx inc and the “HUVEC Cells NOx, 5 d” value is “No significant NOx increase;”. The relaxation response result in series [1] (setting [5]) was “No significant relaxation response”.
On to `Oc1cc(O)c2c(c1)O[C@H](c1ccc(O)c(O)c1)[C@@H](O)[C@H]2c1c(O)cc(O)c2c1O[C@H](c1ccc(O)c(O)c1)[C@H](O)C2` [C-(4β→8)-EC], for which, in series [1] (Experiment 2, 10^−9 to 10^−4 M), the relaxation response result is given as “No significant relaxation response”. Also, in series [3], the “cell-mediated MTT reduction” value is recorded as “significant decline of cell-mediated MTT reduction”.
Consider `O=C(O[C@@H]1Cc2c(O)cc(O)cc2O[C@@H]1c1ccc(O)c(O)c1)c1cc(O)c(O)c(O)c1` [ECG, Epicatechingallate, reference compound], for which the relaxation response entry in series [1] (setting [5]) is “No significant relaxation response”. Further, the “cell-mediated MTT reduction” value in series [3] is recorded as “significant decline of cell-mediated MTT reduction”.
Regarding `CNC(=N)NCCC[C@H](N)C(=O)O` [L-NNMA, reference compound], in series [2] (compared to vehicle), the “NO production, positive and negative controls” value is “completely attenuated the acetylcholine and histamine-NO production”. The “NOx production, positive and negative controls” value in series [2] (Experiment 2, single dose, 24 hours, compared to vehicle) was “completely attenuated the acetylcholine-induced NO production”.
As for “(−)-Epicatechin-(4β,8)-(OMethyl)4-(−)-Epicatechin Digallate [EC-(4β→8)(OMethyl)4-EC digallate]”, in series [2], the “HUVEC Cells NOx, 2 hr” value was “no effect”; the “HUVEC Cells NOx, 24 hr” value was “no effect”; the “HUVEC Cells NOx, 5 d” value is 10 uM, significant NOx increase. Further, the relaxation response entry in series [1] (Experiment 1, 10^−9 to 10^−4 M) was “No significant relaxation response”.
Regarding `O=C(O)c1cc(O)c(O)c(O)c1` [Gallic Acid, reference compound], the relaxation response result in series [1] (setting [5]) is listed as “No significant relaxation response”.
